# Reference: PMC8200211, “PTD4 Peptide Increases Neural Viability in an In Vitro Model of Acute Ischemic Stroke” (International Journal of Molecular Sciences, 2021)
# Entries after “also recorded” stand apart in the source; their conditions may differ. Where two headings read alike, the source gives them in different places. Where no end group is shown, it is not given here.
# Key:
# [1] = tested on: primary neural cortical cultures; experiment: Peptide neurotoxicity, CellTiter-Blue viability assay; assay type: cell-based, Wistar rat; details: for Neural viability, relative to non-insulted control: 100 µM; for Concentration at which neurotoxic impact was visible: tested 1, 10, 50, 100, 200 µM
# Experimental: (§1) All animal experiments were conducted in accord with the permission of the Local Bioethics Committee. Primary cortical neurons were isolated from Wistar rat embryos at embryonic day 18.5 (E18.5). Pregnant females were euthanized in a CO2 chamber, and the embryos were immediately removed in order to microdissect the brains. The cortices were excised, transferred to Hank’s Balanced Salt Solution (HBSS, Gibco, Waltham, MA, USA), supplemented with a 1% penicillin/streptomycin mixture (Gibco, Waltham, MA, USA) and washed. Afterwards, the tissue was trypsinized (2.5% trypsin, Gibco, Waltham, MA, USA) for 10 min at 37 °C, and homogenized gently by re-suspension with a sterile tip of a pipette. The cell suspension was centrifuged in 300 rcf for 4 min and re-suspended in Neurobasal-A medium (Gibco, Waltham, MA, USA) supplemented to final concentration with 1 mM sodium pyruvate, 12.5 mM glucose 2% B27 (Gibco, Waltham, MA, USA), […] L-glutamine, […], a 1% penicillin/streptomycin mixture, and seeded in a 24-well plate poly-D-lysine (PDL)-coated (BioCoat, Corning, Tewksburry, MA, USA) in the number of 200,000 cells per well. The neural cultures were incubated in a CO2 chamber (5%, 95% air balance, 98% humidity, 37 °C) for 14 days and were used on culture day in vitro (DIV) 14–15.
# The influence of all peptides on neural viability was assessed by exposing the cells to different peptide concentrations (1, 10, 50, 100, 200 µM) for 20 h at 37 °C in a 5% CO2 chamber. The assessments were performed in 24-well PDL-coated plates (BioCoat, Corning, Tewksbury, MA, USA) with a working volume of 500 µL/well. The respective peptide solutions were prepared in culture medium so that in all wells only 50 µL of the medium was exchanged, including control (untreated) samples.
# Neural viability was assessed in CellTiter-Blue® (CTB) assay (Promega, cat #G8080, Madison, WI, USA) after 20 h long incubation of cells in standard Neurobasal medium after stressful conditions. The test was performed in 24-well PDL-coated plates (BioCoat, Corning, Tewksbury, MA, USA) and according to the manufacturer’s guideline, which included adding the solution to the neural culture well, followed by incubation for 1–4 h at 37 °C (5% CO2). The fluorescence intensity of the CTB reagent was measured spectrofluorimetrically (560ex/590em) and was proportional to the number of viable cells. The results were calculated as a percentage taking the respective control (non-insulted) measurement as 100% viability.
# Each cell viability experiment was performed in at least three biologically independent experiments, in each of which neural cultures were obtained from one female rat. Each female originated from different breeding parents. In one experiment, the viability assessments for each condition were conducted in three plates, with three–four replicate wells per plate. For every plate, relative viability for one condition were averaged, and then used to calculate averaged results for all plates in an experiment. The final values were calculated from averaged results of independent experiments and shown as a mean ± standard deviation (SD), n = 3. The data were analyzed by a two-way ANOVA test with p-value < 0.05 values considered statistically significant.
# [2] = tested on: pre-insulted rat primary neural culture; experiment: Pro-viable effect of peptides in a multifactorial in vitro model of acute ischemic stroke, CellTiter-Blue; assay type: cell-based, Wistar rat; details: 1 h, then 50 µM peptide 20 h; for Neuroprotection against excitotoxicity: 400 µM glutamic acid, 800 µM NMDA or 800 µM kainic acid
# Experimental: as §1, with “14–15. […]” for “14–15.”
# Neural viability was assessed in CellTiter-Blue® (CTB) assay (Promega, cat #G8080, Madison, WI, USA) after 20 h long incubation of cells in standard Neurobasal medium after stressful conditions. […] The fluorescence intensity of the CTB reagent was measured spectrofluorimetrically (560ex/590em) and was proportional to the number of viable cells. The results were calculated as a percentage taking the respective control (non-insulted) measurement as 100% viability. […]
# cell membrane = details: previous reports; cited from earlier work
# Source text: Comparing the native Tat(49–57)-NH2 and PTD4, the latter appeared as a better-performing neuroprotectant in the AIS model. Mechanistically, this may indicate a possible correlation between neuroprotection and the structural and acid-base peptide properties.
compound,measurement,setting,value
C#CC(=O)N[C@@H](CCCNC(=N)N)C(=O)N[C@@H](CCCCN)C(=O)N[C@@H](CCCCN)C(=O)N[C@@H](CCCNC(=N)N)C(=O)N[C@@H](CCCNC(=N)N)C(=O)N[C@@H](CCC(N)=O)C(=O)N[C@@H](CCCNC(=N)N)C(=O)N[C@@H](CCCNC(=N)N)C(=O)N[C@@H](CCCNC(=N)N)C(N)=O [Prop-Tat],"Neural viability, relative to non-insulted control",[1],< 10%
same,Concentration at which neurotoxic impact was visible,"[1]; 20 h exposure, CTB assay",1000 nM
"RKKR^52RQRRR^57-amide [Tat(49–57)-NH2, reference compound]",Neuroprotection against excitotoxicity,[2],significant neuroprotection
same,Neurotoxicity at higher concentrations,"[1]; >100 µM, 20 h exposure, CTB assay, n = 3",most toxic impact; also recorded: significantly neurotoxic
"YARAAARQARA-NH2 [PTD4, less basic Ala-substituted analogue of Tat(49–57)-NH2, cell-penetrating peptide]",Neuroprotection against excitotoxicity,[2],significant neuroprotection
same,Pro-viable activity against acidosis,"[2]; acidosis pH 6.35, 200 mM sodium lactate",displayed pro-viable activity
same,Efficiency of peptide translocation across the cell membrane compared to Tat(49–57)-NH2,cell membrane,almost thirty times higher
same,Highest non-toxic concentration,[1],50 µM
same,Neurotoxicity at higher concentrations,[1],significantly neurotoxic
same,Neurotoxicity at low concentrations,[1],negligible
same,Neurotoxicity ranking among the peptides tested,[1],lowest neurotoxicity
"CC[C@H](C)[C@H](NC(=O)[C@H](CCCCN)NC(=O)[C@H](CCCCN)NC(=O)[C@H](C)NC(=O)[C@H](CC(C)C)NC(=O)[C@H](C)NC(=O)[C@H](C)NC(=O)[C@H](CC(C)C)NC(=O)[C@H](C)NC(=O)[C@H](CCCCN)NC(=O)[C@H](CC(C)C)NC(=O)[C@H](CC(N)=O)NC(=O)[C@@H](NC(=O)[C@H](CCCCN)NC(=O)CNC(=O)[C@H](CC(C)C)NC(=O)[C@H](CC(C)C)NC(=O)[C@H](Cc1ccc(O)cc1)NC(=O)CNC(=O)[C@H](C)N)[C@@H](C)CC)C(=O)N[C@@H](CC(C)C)C(N)=O [TP10, reference compound]","Neural viability, relative to non-insulted control",[1],< 10%
same,Neurotoxicity ranking among the peptides tested,"[1]; 1-200 µM, 20 h exposure, CTB assay",highest toxicity
same,Concentration at which neurotoxic impact was visible,"[1]; 20 h exposure, CTB assay",1000 nM
